Reference: US7763642B2 (Sterix Ltd., priority 2004, dated 2010)
Read-outs that look alike come from different tables or passages of the source.

Legend:
aromatase = biological target: T1, aromatase (Homo sapiens, UniProt P11511); assay: Aromatase activity in JEG3 choriocarcinoma cells (Protocol 6); assay type: cell-based
T1 construct: Intact monolayers of JEG3 cells (2.5×10^6 cells) in triplicate 25 cm^2 tissue culture flasks; host or cells: JEG3 choriocarcinoma cells
T1 sequence (P11511 1-503): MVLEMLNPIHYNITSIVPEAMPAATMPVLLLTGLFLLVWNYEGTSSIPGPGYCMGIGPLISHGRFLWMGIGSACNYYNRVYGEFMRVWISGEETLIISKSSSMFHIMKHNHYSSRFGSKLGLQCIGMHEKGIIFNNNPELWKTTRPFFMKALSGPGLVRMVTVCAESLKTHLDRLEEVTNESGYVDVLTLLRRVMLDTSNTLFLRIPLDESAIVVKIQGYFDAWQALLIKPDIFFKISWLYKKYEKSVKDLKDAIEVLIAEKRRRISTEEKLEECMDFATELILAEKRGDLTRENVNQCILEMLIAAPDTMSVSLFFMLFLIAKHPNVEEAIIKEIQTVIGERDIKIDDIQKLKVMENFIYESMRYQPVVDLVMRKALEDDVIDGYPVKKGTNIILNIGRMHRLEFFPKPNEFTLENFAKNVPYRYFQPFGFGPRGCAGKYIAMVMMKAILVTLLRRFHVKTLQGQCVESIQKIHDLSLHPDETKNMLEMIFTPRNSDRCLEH
Method: Aromatase activity is measured in JEG3 choriocarcinoma cells, obtained from the ATCC. […] Cells are maintained in Minimal Essential Medium (MEM, Flow Laboratories, Irvine, Scotland) containing 20 mM HEPES, 10% foetal bovine serum, 2 mM glutamine, non-essential amino acids and 0.075% sodium bicarbonate. Intact monolayers of JEG3 cells (2.5×10^6 cells) in triplicate 25 cm^2 tissue culture flasks are washed with Earle's Balanced salt solution (EBSS, from ICN Flow, High Wycombe, UK) and incubated with [1β-^3H] androstenedione (2-5 nM, 26 Ci/mmol, New England Nuclear, Boston, Mass., USA) for 30 min with inhibitors over the range of 10 pm-10 μM. During the aromatase reaction, ^3H2O is liberated which can he quantified using a liquid scintillation spectrometer (Beckman-Coulter, High Wycombe, Bucks. UK). […] The number of cell nuclei per flask is determined using a Coulter Counter after treating the cell monolayers with Z aponin.
Unpaired Student's t test was used to test the statistical significance of results. IC50 values were calculated as the concentration of inhibitor required to obtain a 50% inhibition of aromatase activity.

steroid sulphatase (STS) = biological target: T2, steroid sulphatase (STS) (Homo sapiens, UniProt P08842); assay: Inhibition of steroid sulphatase activity in JEG3 cells (Protocol 1); assay type: cell-based; conditions: for inhibition at 10 µM: JEG-3, read-out: % STS INHIBITION (10 μM)
T2 construct: Intact monolayers of JEG3 cells in triplicate 25 cm^2 tissue culture flasks; host or cells: JEG3 choriocarcinoma cells
T2 sequence (P08842 22-583): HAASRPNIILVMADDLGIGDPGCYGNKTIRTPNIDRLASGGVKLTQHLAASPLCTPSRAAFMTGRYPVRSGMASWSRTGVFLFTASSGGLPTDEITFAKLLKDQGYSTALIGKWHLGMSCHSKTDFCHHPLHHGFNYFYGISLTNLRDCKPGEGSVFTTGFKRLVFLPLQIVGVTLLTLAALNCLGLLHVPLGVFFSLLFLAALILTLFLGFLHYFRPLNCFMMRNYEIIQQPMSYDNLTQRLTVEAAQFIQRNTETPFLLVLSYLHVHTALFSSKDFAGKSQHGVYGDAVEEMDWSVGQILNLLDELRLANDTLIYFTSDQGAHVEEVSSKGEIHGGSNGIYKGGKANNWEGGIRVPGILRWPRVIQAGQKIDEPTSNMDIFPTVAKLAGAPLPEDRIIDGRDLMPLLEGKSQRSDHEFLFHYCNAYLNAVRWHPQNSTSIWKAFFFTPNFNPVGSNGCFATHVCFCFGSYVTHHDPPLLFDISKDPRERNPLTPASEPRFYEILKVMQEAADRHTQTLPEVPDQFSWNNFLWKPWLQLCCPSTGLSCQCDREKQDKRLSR
Method: Steroid sulphatase activity is measured in vitro using intact JEG3 choriocarcinoma cells. This cell line may be used to study the control of human breast cancer cell growth.
Cells are maintained in Minimal Essential Medium (MEM) (Flow Laboratories, Irvine, Scotland) containing 20 mM HEPES, 5% foetal bovine serum, 2 mM glutamine, non-essential amino acids and 0.075% sodium bicarbonate. Up to 30 replicate 25 cm2 tissue culture flasks are seeded with approximately 1×10^5 cells/flask using the above medium. Cells are grown to 80% confluency and the medium is changed every third day.
Intact monolayers of JEG3 cells in triplicate 25 cm^2 tissue culture flasks are washed with Earle's Balanced Salt Solution (EBSS from ICN Flow, High Wycombe, U.K.) and incubated for 3-4 hours at 37° C. with 5 pmol (7×10^5 dpm) [6,7-3H]oestrone-3-sulphate (specific activity 60 Ci/mmol from New England Nuclear, Boston, Mass., U.S.A.) in serum-free MEM (2.5 ml) together with oestrone-3-sulphamate (11 concentrations: 0; 1 fM; 0.01 pM; 0.1 pM; 1 pM; 0.01 nM; 0.1 nM; 1 nM; […]). After incubation each flask is cooled and the medium (1 ml) is pipetted into separate tubes containing [14C]oestrone (7×10^3 dpm) (specific activity 97 Ci/mmol from Amersham International Radiochemical Centre, Amersham, U.K.). The mixture is shaken thoroughly for 30 seconds with toluene (5 ml). Experiments have shown that >90% [14C] oestrone and <0.1% [3H]oestrone-3-sulphate is removed from the aqueous phase by this treatment. A portion (2 ml) of the organic phase is removed, evaporated and the 3H and 14C content of the residue determined by scintillation spectrometry. The mass of oestrone-3-sulphate hydrolysed was calculated from the 3H counts obtained (corrected for the volumes of the medium and organic phase used, and for recovery of [14C] oestrone added) and the specific activity of the substrate. Each batch of experiments includes incubations of microsomes prepared from a sulphatase-positive human placenta (positive control) and flasks without cells (to assess apparent non-enzymatic hydrolysis of the substrate). The number of cell nuclei per flask is determined using a Coulter Counter after treating the cell monolayers with Zaponin. One flask in each batch is used to assess cell membrane status and viability using the Trypan Blue exclusion method (Phillips, H. J. (1973) In: Tissue culture and applications, [eds: Kruse, D. F. & Patterson, M. K.]; pp. 406-408; Academic Press, New York).
Results for steroid sulphatase activity are expressed as the mean±1 S.D. of the total product (oestrone+oestradiol) formed during the incubation period (3-4 hours) calculated for […] and, for values showing statistical significance, as a percentage reduction (inhibition) over incubations containing no oestrone-3-sulphamate. Unpaired Student's t-test was used to test the statistical significance of results.

E1-STS = biological target: T3, E1-STS (Homo sapiens, UniProt P08842); conditions: 0.1 nM; cited from earlier work
T3 construct: host or cells: MCF-7 cells
T3 sequence (P08842 22-583): T2 sequence (P08842 22-583)

uterus = conditions: cited from earlier work
steroid sulphatase = biological target: T4, steroid sulphatase (Homo sapiens, UniProt P08842); conditions: versus EMATE; cited from earlier work
T4 sequence (P08842 22-583): T2 sequence (P08842 22-583)

[1] = biological target: T5, oestrone sulphatase (STS) (Rattus norvegicus, UniProt P15589); assay: Inhibition of oestrone sulphatase activity in vivo (Protocol 3)
T5 construct: samples of liver tissue were obtained and oestrone sulphatase activity assayed; from tissue; host or cells: rat liver
T5 sequence (P15589 20-577): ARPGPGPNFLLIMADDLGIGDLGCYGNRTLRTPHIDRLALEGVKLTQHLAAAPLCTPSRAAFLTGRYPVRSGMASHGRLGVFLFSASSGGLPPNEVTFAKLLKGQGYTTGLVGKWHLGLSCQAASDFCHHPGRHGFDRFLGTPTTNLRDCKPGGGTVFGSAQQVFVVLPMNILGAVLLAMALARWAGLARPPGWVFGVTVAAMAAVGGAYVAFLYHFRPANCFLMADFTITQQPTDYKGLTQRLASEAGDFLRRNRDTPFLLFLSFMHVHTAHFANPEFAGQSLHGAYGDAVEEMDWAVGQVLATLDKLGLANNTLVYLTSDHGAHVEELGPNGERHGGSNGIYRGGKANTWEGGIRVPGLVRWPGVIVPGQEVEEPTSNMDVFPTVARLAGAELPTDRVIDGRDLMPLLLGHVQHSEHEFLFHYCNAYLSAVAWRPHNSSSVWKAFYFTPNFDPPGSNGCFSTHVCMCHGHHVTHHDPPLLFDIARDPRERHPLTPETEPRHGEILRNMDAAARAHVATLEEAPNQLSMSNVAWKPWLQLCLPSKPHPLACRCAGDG
Method: The compounds of the present invention may be studied using an animal model, in particular in ovariectomised rats. In this model compounds which are oestrogenic stimulate uterine growth.
At the end of the study samples of liver tissue were obtained and oestrone sulphatase activity assayed using 3H oestrone sulphate as the substrate as previously described (see PCT/GB95/02638).
In vivo data were recorded using the above described aromatase and STS animals assays. The relevant compounds were administered and for each animal both aromatase and STS activities were determined.

[2] = JEG-3; read-out: % AROMATASE INHIBITION (10 μM)
[3] = JEG-3, read-out: % AROMATASE INHIBITION (10 μM)

SMILES	inhibition at 10 µM (aromatase; [2])	inhibition at 10 µM (steroid sulphatase (STS))	other results
N#CC1(c2cc(CSc3ccc(OS(N)(=O)=O)c(Cl)c3)cc(Cn3cncn3)c2)CCC1 [STX1794, 4-((3-((1H-1,2,4-triazol-1-yl)methyl)-5-(1-cyanocyclobutyl)benzyl)sulfanyl)-2-chlorophenyl sulfamate]	99.7 ± 0.1%	75.3 ± 0.6%	–
CC12CCC3c4ccc(OS(N)(=O)=O)cc4CCC3C1CCC2=O (stereo not drawn) [EMATE, oestrone-3-sulphamate]	–	–	inhibition of E1-STS activity in intact MCF-7 cells (E1-STS): more than 99%; oral uterotrophic activity relative to estradiol (uterus; rats, oral, versus estradiol): 100 times
COc1cc2c(cc1OS(N)(=O)=O)CC[C@@H]1[C@@H]2CC[C@]2(C)C(=O)CC[C@@H]12 [2-methoxyoestrone-3-O-sulphamate]	–	–	oestrogenicity (uterus; rat, in vivo): devoid of oestrogenicity; potency as steroid sulphatase inhibitor relative to EMATE (steroid sulphatase): equipotent with EMATE
CC(C)(C#N)c1cc(CSc2ccc(OS(N)(=O)=O)c(Br)c2)cc(Cn2cncn2)c1 [STX1795, 4-((3-((1H-1,2,4-triazol-1-yl)methyl)-5-(2-cyanopropan-2-yl)benzyl)sulfanyl)-2-bromophenyl sulfamate]	100%	–	–
COC(=O)c1cc(Cn2cncn2)cc(N(C)S(=O)(=O)c2ccc(OS(N)(=O)=O)cc2)c1 [STX1829, 3-[Methyl-(4-sulfamoyloxy-benzenesulfonyl)-amino]-5-[1,2,4]triazol-1-ylmethyl-benzoic acid methyl ester]	99.5 ± 0.2%	17.6 ± 4%	–
COC(=O)c1cc(Cn2cncn2)cc(NC(=O)c2ccc(OS(N)(=O)=O)cc2)c1 [STX1830, 3-(4-Sulfamoyloxy-benzoylamino)-5-[1,2,4]triazol-1-ylmethyl-benzoic acid methyl ester]	–	33.4 ± 5.3%	inhibition at 10 µM (aromatase; [3]): 52.7 ± 6.7%
CC(C)(C#N)c1cc(COc2ccc(OS(N)(=O)=O)cc2)cc(Cn2cncn2)c1	99.8 ± 0.2%	< 10%	–
CC(C)(C#N)c1cc(/C=C/c2ccc(OS(N)(=O)=O)cc2)cc(Cn2cncn2)c1 [STX1833, 4-(3-((1H-1,2,4-triazol-1-yl)methyl)-5-(2-cyanopropan-2-yl)styryl)phenyl sulfamate]	–	21.5 ± 4.7%	–
COC(=O)c1cc(Cn2cncn2)cc(NS(=O)(=O)c2ccc(OS(N)(=O)=O)c(F)c2)c1 [STX1528, 3-(3-Fluoro-4-sulfamoyloxy-benzenesulfonylamino)-5-[1,2,4]triazol-1-ylmethyl-benzoic acid methyl ester]	–	< 10%	inhibition at 10 µM (aromatase; [3]): 83.4 ± 1.3%
N#Cc1ccc(-c2ccc(OS(N)(=O)=O)cc2)cc1Cn1cncn1 [STX1522, Sulfamic acid 4′-cyano-3′-[1,2,4]triazol-1-ylmethyl-biphenyl-4-yl ester]	–	96.1 ± 0.3%	inhibition at 10 µM (aromatase; [3]): 98 ± 0.3%
CC(C)(C#N)c1cc(CSc2ccc(O)cc2)cc(Cn2cncn2)c1 [STX1022]	–	–	IC50 (aromatase; JEG3 cells): 1 nM
N#CC1(c2cc(CSc3ccc(OS(N)(=O)=O)cc3)cc(Cn3cncn3)c2)CC1 [STX1732, 4-((3-((1H-1,2,4-triazol-1-yl)methyl)-5-(1-cyanocyclopropyl)benzyl)sulfanyl)phenyl sulfamate]	99.8 ± 0.1%	< 10%	–
N#CC1(c2cc(CSc3ccc(OS(N)(=O)=O)cc3)cc(Cn3cncn3)c2)CCC1 [STX1731, 4-((3-((1H-1,2,4-triazol-1-yl)methyl)-5-(1-cyanocyclobutyl)benzyl)sulfanyl)phenyl sulfamate]	99.5 ± 0.2%	21.4 ± 7.9%	–
CC(C)(C#N)c1cc(CSc2ccc(OS(N)(=O)=O)cc2)cc(Cn2cncn2)c1 [STX1023]	–	–	IC50 (aromatase; JEG3 cells): 3.5 nM; IC50 (steroid sulphatase (STS); JEG3 cells): > 10000 nM; inhibition at 10 mg/kg [1]: 87%
CC(C)(C#N)c1cc(Cn2cncn2)cc(-c2ccc(OS(N)(=O)=O)cc2)c1 [STX1523, Sulfamic acid 3′-(cyano-dimethyl-methyl)-5′-[1,2,4]triazol-1-ylmethyl-biphenyl-4-yl ester]	99.7 ± 0.2%	24.4 ± 3.1%	–
CC(C)(C#N)c1cc(CSc2ccc(OS(N)(=O)=O)c(Cl)c2)cc(Cn2cncn2)c1	99.9 ± 0.2%	82.3 ± 0.8%	–
